Laboratory results reported in patent US20080269121A1, “Methods and Compositions Involving A1c Subunit of L-Type Calcium Channels in Smooth Muscle Cells” (The Board of Regents of the University of Texas System, priority 2005, published 2008).
Entries after “also recorded” stand apart in the source; their conditions may differ. Read-outs that look alike come from different tables or passages of the source.

What was measured:
[1] = system: α1C subunit of L-type Ca^2+ channels; test: Q-PCR of α1C mRNA expression in HCCSMC; format: cell-based, human; settings: for induction of α1C mRNA expression: HCCSMC
Text: (§1) Primary cultures of HCCSMC: Human tissue was obtained from the descending and sigmoid colons with approval of the University of Texas Medical Branch Institutional Review Board from disease free margins of resected segments from patients undergoing surgery for colon cancer. The circular muscle layer was separated from the taenia coli and lamina propria with a tissue slicer. The circular muscle layer was collected in ice-cold HEPES buffer (in mM: 120 NaCl, 2.6 KH2S04, 4 KCl, 2 CaCl2, 0.6 MgCl2, 25 HEPES, 14 glucose and 2.1% essential amino acid mixture, pH 7.4). Two successive digestions with papain and collagenase, as described previously by Shi and Sarna, were used to disperse smooth muscle cells. The cells were cultured in RPMI 1640 (Gibco/Invitrogen, Carlsbad, Calif.) supplemented with 10% fetal bovine serum in the presence of 100 units/mL of penicillin G, 100 μg/mL of streptomycin sulfate and 0.25 μg/mL of amphoteracin B. The culture medium was changed every three days. Cells in passages 3 to 5 were used in all experiments. All cells were cultured in serum-free medium for at least 15 h prior to experiments to eliminate the possible effects of growth factors. […] The cultures of colonic smooth muscle cells retain their contractile phenotype. Each experiment used cells or muscle strips from at least three different subjects.
Total RNA was extracted from cells using the Qiagen RNeasy kit (Qiagen, Valencia, Calif.) by following the manufacturer's protocol. The cDNAs were made using the Superscript First-Strand Synthesis System (Invitrogen, Carlsbad, Calif.).
Quantitive real-time-polymerase chain reaction (Q-PCR). Q-PCR assay is employed to determine gene expression using TaqMan technology on Applied Biosystems 7000 sequence detection system (UTMB Real-time PCR Core Facility). Applied Biosystems Assays-By-Design containing a 20× assay mix of primers and TaqMan MGB probes (FAMTM dye-labeled) are used for a target gene and the endogenous control, human 18s RNA. These assays were designed using primers that span exon-exon junctions so as not to detect genomic DNA. All primer and probe sequences were searched against the Celera data base to confirm specificity. The primer and probe sequences used were as follows: human Cav1.2 channel oα1C intermediate form (Cav1.2b) probe spanning exon 1b and exon 2, […] (SEQ ID NO:4): forward primer, […] (SEQ ID NO:5): reverse primer, […] (SEQ ID NO:6). Human Cav1.2 channel α1C long form (Cav1.2a) probe spanning exon 1a and exon 2: […] (SEQ ID NO:7): forward primer, […] (SEQ ID NO:8): reverse primer. […] (SEQ ID NO:6).

α1C1b promoter = α1C1b promoter luciferase reporter activity in HCCSMC; format: cell-based, human; settings: for α1C1b promoter reporter (luciferase) activity: substance by itself; for effect on enhancement of α1C1b promoter activity by VIP: with VIP
Procedure: Transient cell transfections and luciferase activity. FuGENE 6 (Roche, Mannheim, Germany) is used to transfect luciferase-expressing pGL2 constructs in HCCSMC. The cells in passage 4 are seeded into 12-well plates (Costar, Acton, Mass.) and grown to 70% to 80% confluency. Transfections are carried out by incubation of cells in each well with 1.5 μl of FuGENE 6, 0.5 μg of pGL2 construct, and 0.125 μg of pSEAP2 Control Vector (BD Biosciences Clontech, Palo Alto, Calif.) for 24 h as per manufacturer's instructions. The pSEAP2 Control Vector is co-transfected for normalization of data. The transfected cells were treated with stimulus or medium control and harvested after 24 hours. Twenty μl of the supernatant of the cell lysates are taken for the measurement of luciferase activity by a luminometer (Promega, Madison, Wis.). The SEAP activity is measured with a Clontech SEAP detection kit by following the manufacturer's instructions.
Promoter constructs, 5′-deletions, and site-directed mutagenesis. The promoter constructs of hα1c1b are prepared by PCR amplification of human genomic DNA (Roche, Indianapolis, Ind.) and digested partially with Hind III (Promega, Madison, Wis.) using the FailSafe PCR kit (Epicentre, Madison, Wis.). The PCR product is subcloned into pDrive Cloning Vector with the PCR Cloning^plus kit (Qiagen, Valencia, Calif.) and SURE 2 supercompetent cells (Stratagene, La Jolla, Calif.) and subsequently transferred to the luciferase expression plasmid pGL2-Basic Vector (Promega, Madison, Wis.). The deletion constructs are made using the full length promoter construct as a template in PCR reactions. The same methods and kits are used to subclone the sequenced PCR products into the pDrive and pGL2 vector. The site-directed mutagenesis is carried out using QuikChange® II XL Site-Directed Mutagenesis Kit from Stratagene (La Jolla, Calif.), as per manufacturer's instructions.

[2] = system: α1C subunit of L-type Ca^2+ channels; test: α1C protein expression (Western immunoblotting); format: cell-based, human; settings: muscle strip tissue, FIG. 14 top
Text: as §1
Western immunoblotting. Each lane is loaded with 10 μg protein and size-separated on a 10% SDS polyacrylamide gel. After blotting, the nitrocellulose membranes are blocked with 10% non-fat dried milk at 4° C. overnight. The blots are incubated with appropriate dilution of the antibody at 4° C. overnight and appropriate dilution of designated secondary antibody at room temperature for 1 h. β-actin is used as internal control.

[3] = system: human colonic circular muscle strips; test: Muscle bath: contractile response of human colonic circular muscle strips; format: cell-based
Procedure: (§2) Muscle bath experiments. Pure circular muscle strips (2 mm×10 mm) are prepared from resected human colon segments. The strips are mounted in 5 ml baths filled with carbonated Krebs solution (in mM: 118 NaCl, 4.7 KCl, 2.5 CaCl2, 1 NaH2PO4, 1-2 MgCl2, 11 D-glucose, and 25 NaHCO3) at 37° C. (Siebenlist et al., 1994; Barnes and Karin, 1997). The muscle strips are equilibrated for 1 h at 1 g tension and then stretched until maximal response is obtained to 10^−4 m ACh. The bathing solution is replaced every 15 min. Contractions are measured by force transducers and analyzed by DATAQ (Akron, Ohio) software.
The protocol for transfection of sense and antisense oligonucleotides in freshly obtained muscle strips was similar to that in HCCSMC. The circular muscle layer was isolated from the fall thickness human colon, and sliced into 2 mm×10 mm muscle strips. The strips were incubated in RPMI 1640 without serum. The sense and antisense oligonucleotides (10 μM) were added into the medium for 24 h before incubation with 20 ng/mL TNFα for 24 h.

[4] = system: TNBS-induced inflammation; format: in vivo, rat; settings: for suppression of contractile response, with sub-threshold dose of TNBS: osmotic pump plus TNBS 30 mg/kg, compared with TNBS 130 mg/kg
Procedure: as §2
(§3) Vertebrate Animals. Sprague-Dawley rats were used. For tissue harvesting, the rats were anesthetized with 5% isoflurame in 100% oxygen for 5 to 7 minutes followed by i.p. injection of 50 mg/kg ketamine.
(§4) Osmotic pumps were implanted under anesthesia as discussed above. Lateral surface of left back were shaven and cleaned with betadine. A 2 cm incision was made in the skin and subcutaneous facia and muscle separated. The micro-osmotic pump were implanted intramuscularly and the incision was closed.
Colonic inflammation was induced by intraluminal injection of 30 mg/kg or 130-mg/kg trinitrobenzene sulfonic acid (TNBS) under anesthesia, as described above.

Cav1.2a = settings: neonatal rat ventricular myocytes; cited from earlier work
CRE1 and CRE2 = test: Oligonucleotide agarose conjugate pull-down of CREB; format: cell-based, human; settings: with VIP, FIG. 10
p65 subunit = test: Nuclear abundance and binding of NF-κB p65 in HCCSMC; format: cell-based, human
Procedure: Cytoplasmic and nuclear protein, and RNA extraction: Cytoplasmic and nuclear proteins were prepared as described earlier by Shi et al. Briefly, the cells were washed twice with phosphate-buffered saline solution and then with buffer A (in mM: 10 HEPES, 1.5 MgCl2, 10 KCl, 0.5 dithiothreitol, 0.5 phenylmethylsulfrenyl fluoride [PMSF]; 10 ng/mL leupeptin, and 10 ng/mL aprotinin). The cells were resuspended in 25 μL of buffer A containing 0.25% NP-40 and incubated at 4° C. for 10 minutes. After centrifugation at 12,000 g for 10 minutes, the supernatant was collected as cytoplasmic extract. The nuclear pellet was resuspended in 20 μL of buffer C (in mM: 20 HEPES, […], 1.5 MgCl2, 0.2 ethylenediaimetetraacetic acid (EDTA), 0.5 DTT, 0.5 PMSF; 24% glycerol, 10 ng/mL leupeptin, and 10 ng/mL aprotinin) and incubated on ice with frequent vortexing for 15 minutes. The samples were centrifuged at 14,000 g for 10 minutes, and the supernatant (nuclear extract) was transferred to a fresh tube with 5 volumes of buffer D (in mM: 20 HEPES, 0.2 EDTA, 50 KCl, 0.5 DTT, 0.5 PMSF; 20% glycerol, 10 ng/mL leupeptin, and 10 ng/mL aprotinin). The protein concentration was determined by using the Bio-Rad assay kit (Bio-Rad Laboratories, Hercules, Calif.).
Electrophoretic mobility shift assay. […]

[5] = system: rat middle colon muscle strips; test: Osmotic pump administration in rats, contractile response of colon muscle strips; format: in vivo; settings: systemic administration by osmotic pump for 3 days
Procedure: as §2, §3, §4

NC[C@H](O)c1ccc(O)c(O)c1 [norepinephrine]
induction of α1C mRNA expression [1]: induced the expression of α1C mRNA

COc1cccc(-c2cc(=O)c3ccccc3o2)c1N [PD98059]
α1C1b promoter reporter (luciferase) activity (α1C1b promoter): little effect
effect on enhancement of α1C1b promoter activity by VIP (α1C1b promoter): little effect

pituitary adenylate cyclase-activating peptide [PACAP]
effect on TNFα suppression of α1C protein [2]: minimized
effect on TNFα suppression of contractile response to ACh ([3]; muscle strips, treatment before/with TNFα): significantly reduces the suppression
induction of α1C mRNA expression [1]: induced expression
effect on suppression of α1C1b promoter activity by TNFα (α1C1b promoter; with TNFα): significantly blocked this reduction
effect on suppression of contractility due to TNBS-induced inflammation ([4]; intact rat model, treatment through osmotic pumps, expected): partially inhibit the suppression of contractility

CC(C)NCC(O)c1ccc(O)c(O)c1 (centres unmarked) [isoproterenol]
Cav1.2a mRNA (Cav1.2a): transient increase in Cav1.2a mRNA
increase in peak current density (Cav1.2a): about 40%

TNFα
effect on CREB binding after VIP treatment (CRE1 and CRE2): abrogated; also recorded: reduces the binding after VIP treatment
contractile response of circular muscle strips to ACh ([3]; strips incubated 24 h, organ bath): suppresses their contractile response to ACh; also recorded: suppressed the contractile response to ACh; also recorded: suppression of contractility
nuclear abundance and binding of p65 (p65 subunit): enhanced the nuclear abundance and binding of p65
α1C1b promoter reporter (luciferase) activity (α1C1b promoter): reduced luciferase activity; also recorded: suppressed it

(p-chloro-D-Phe^6, Leu^17)-VIP
suppression of contractile response, with sub-threshold dose of TNBS ([4]; listed as VIP receptor antagonist): increased the suppression of contractile response
suppression of contractile response, with sub-threshold dose of TNBS ([4]; listed as VIP/PACAP receptor antagonist): enhanced the suppression of contractility
contractile response to ACh, antagonist by itself ([4]; osmotic pump, no TNBS, FIG. 15): suppressed the contractile response
diarrhea ([4]; rat, in vivo): did not develop diarrhea
contractile response of rat colon muscle strips to ACh [5]: suppressed the contractile response

Oc1ccc(-c2nc(-c3ccncc3)c(-c3ccc(F)cc3)[nH]2)cc1 [SB202190]
α1C1b promoter reporter (luciferase) activity (α1C1b promoter): little effect
effect on enhancement of α1C1b promoter activity by VIP (α1C1b promoter): somewhat blunt the enhancement

O=S(=O)(NCCNC/C=C/c1ccc(Br)cc1)c1cccc2cnccc12 [H-89]
effect on α1C mRNA on its own ([1]; FIG. 4): no effect on its own
effect on VIP enhancement of α1C mRNA ([1]; FIG. 4, with VIP): partially inhibited the effect of VIP
